Experimental findings from BindingDB's records for doi:10.1021/jm900098v (Kosan Biosciences, 2009) are described below.

Chain of Heat shock protein HSP 90-beta (P08238 whole entry): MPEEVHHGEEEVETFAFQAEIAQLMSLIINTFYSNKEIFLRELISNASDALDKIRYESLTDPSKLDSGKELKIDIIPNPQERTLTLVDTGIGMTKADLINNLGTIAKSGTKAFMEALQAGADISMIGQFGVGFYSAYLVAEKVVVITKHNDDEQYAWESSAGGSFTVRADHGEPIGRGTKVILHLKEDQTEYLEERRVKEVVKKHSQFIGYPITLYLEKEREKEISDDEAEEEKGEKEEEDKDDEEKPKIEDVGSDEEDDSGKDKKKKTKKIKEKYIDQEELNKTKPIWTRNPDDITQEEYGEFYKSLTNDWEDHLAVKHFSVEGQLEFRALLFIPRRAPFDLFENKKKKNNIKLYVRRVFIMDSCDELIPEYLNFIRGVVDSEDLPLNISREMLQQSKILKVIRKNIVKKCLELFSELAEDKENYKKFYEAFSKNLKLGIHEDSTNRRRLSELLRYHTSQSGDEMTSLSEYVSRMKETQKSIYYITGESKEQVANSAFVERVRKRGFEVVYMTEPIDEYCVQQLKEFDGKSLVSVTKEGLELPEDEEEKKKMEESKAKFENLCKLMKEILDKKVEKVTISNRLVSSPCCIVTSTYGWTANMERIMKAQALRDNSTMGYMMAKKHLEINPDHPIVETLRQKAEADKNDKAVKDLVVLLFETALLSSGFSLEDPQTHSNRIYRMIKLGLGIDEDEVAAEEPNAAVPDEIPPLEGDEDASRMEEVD

The assay concerns the target Heat shock protein HSP 90-beta (Homo sapiens, UniProt P08238). Put plainly: Binding affinity to human recombinant HSP90.
`CO[C@H]1C=CC=C(C)C(=O)Nc2cc(O)c(N=CCc3cnc[nH]3)c(c2O)C[C@@H](C)C[C@H](OC)[C@H](O)[C@@H](C)/C=C(\C)[C@@H]1OC(N)=O` [(8S,9S,12S,13R,14S,16R)-19-(2-(1H-imidazol-4-yl)ethylamino)-13-hydroxy-8,14-dimethoxy-4,10,12,16-tetramethyl-3,20,22-trioxo-2-azabicyclo[16.3.1]docosa-1(21),4,6,10,18-pentaen-9-yl carbamate]: the Kd (commonly the constant that tells how readily two partners part at equilibrium) was 0.8 µM.

On to `CO[C@H]1C=CC=C(C)C(=O)Nc2cc(O)c(N=CCN3CCC3)c(c2O)C[C@@H](C)C[C@H](OC)[C@H](O)[C@@H](C)/C=C(\C)[C@@H]1OC(N)=O` [(8S,9S,12S,13R,14S,16R)-19-(2-(azetidin-1-yl)ethylamino)-13-hydroxy-8,14-dimethoxy-4,10,12,16-tetramethyl-3,20,22-trioxo-2-azabicyclo[16.3.1]docosa-1(21),4,6,10,18-pentaen-9-yl carbamate], for which the Kd came out at 0.4 µM.

As to `CO[C@H]1C=CC=C(C)C(=O)Nc2cc(O)c(N=CCN(C)C)c(c2O)C[C@@H](C)C[C@H](OC)[C@H](NCCF)[C@@H](C)/C=C(\C)[C@@H]1OC(N)=O`, the Kd is greater than 50 µM.

As to `C=CC=Nc1c(O)cc2c(O)c1C[C@@H](C)C[C@H](OC)C(N=O)[C@@H](C)C=C(C)[C@H](OC(N)=O)[C@@H](OC)C=CC=C(C)C(=O)N2` (stereo partly drawn) [(8S,9S,12S,13E,14S,16R)-19-(allylamino)-13-(hydroxyimino)-8,14-dimethoxy-4,10,12,16-tetramethyl-3,20,22-trioxo-2-azabicyclo[16.3.1]docosa-1(21),4,6,10,18-pentaen-9-yl carbamate], the equilibrium dissociation constant (Kd) is greater than 10 µM.

`CO[C@H]1C=CC=C(C)C(=O)Nc2cc(O)c(N=CCN(C)C)c(c2O)C[C@@H](C)C[C@H](OC)[C@H](NCC(F)(F)F)[C@@H](C)/C=C(\C)[C@@H]1OC(N)=O` [(8S,9S,12S,13R,14S,16R)-19-(2-(dimethylamino)ethylamino)-8,14-dimethoxy-4,10,12,16-tetramethyl-3,20,22-trioxo-13-(2,2,2-trifluoroethylamino)-2-azabicyclo[16.3.1]docosa-1(21),4,6,10,18-pentaen-9-yl carbamate]: the Kd was found to be 4 µM.

In the case of `CNCC=Nc1c(O)cc2c(O)c1C[C@@H](C)C[C@H](OC)[C@H](OC(=O)CN)[C@@H](C)/C=C(\C)[C@H](OC(N)=O)[C@@H](OC)C=CC=C(C)C(=O)N2` [(8S,9S,12S,13R,14S,16R)-9-(carbamoyloxy)-8,14-dimethoxy-4,10,12,16-tetramethyl-19-(2-(methylamino)ethylamino)-3,20,22-trioxo-2-azabicyclo[16.3.1]docosa-1(21),4,6,10,18-pentaen-13-yl 2-aminoacetate], the Kd is greater than 25 µM.

Turning to `CO[C@H]1[C@@H](OC)CC(C)=Cc2c(O)c(cc(O)c2N2CCC2)NC(=O)C(C)=CC=C[C@H](OC)[C@@H](OC(N)=O)/C(C)=C/[C@@H]1C` [(8S,9S,12S,13R,14S,16R)-19-(azetidin-1-yl)-8,13,14-trimethoxy-4,10,12,16-tetramethyl-3,20,22-trioxo-2-azabicyclo[16.3.1]docosa-1(21),4,6,10,18-pentaen-9-yl carbamate], the Kd is 4 µM.

On to `CO[C@H]1[C@@H](OC)C[C@H](C)Cc2c(O)c(cc(O)c2N=CCN2CCC2)NC(=O)C(C)=CC=C[C@H](OC)[C@@H](OC(N)=O)/C(C)=C/[C@@H]1C` [(8S,9S,12S,13R,14S,16R)-19-(2-(azetidin-1-yl)ethylamino)-8,13,14-trimethoxy-4,10,12,16-tetramethyl-3,20,22-trioxo-2-azabicyclo[16.3.1]docosa-1(21),4,6,10,18-pentaen-9-yl carbamate], for which the Kd amounted to 1 µM.

For `CO/N=C1/[C@@H](OC)C[C@H](C)Cc2c(O)c(cc(O)c2N=CCN(C)C)NC(=O)C(C)=CC=C[C@H](OC)[C@@H](OC(N)=O)/C(C)=C/[C@@H]1C` [(8S,9S,12S,14S,16R)-19-(2-(dimethylamino)ethylamino)-8,14-dimethoxy-13-(methoxyimino)-4,10,12,16-tetramethyl-3,20,22-trioxo-2-azabicyclo[16.3.1]docosa-1(21),4,6,10,18-pentaen-9-yl carbamate], the Kd is greater than 100 µM.

Consider `CO[C@H]1C[C@H](C)Cc2c(O)c(cc(O)c2N=CCN(C)C)NC(=O)C(C)=CC=C[C@H](OC)[C@@H](OC(N)=O)/C(C)=C/[C@H](C)/C1=N\OCC(=O)O` [2-(((8S,9S,12S,14S,16R)-9-(carbamoyloxy)-19-(2-(dimethylamino)ethylamino)-8,14-dimethoxy-4,10,12,16-tetramethyl-3,20,22-trioxo-2-azabicyclo[16.3.1]docosa-1(21),4,6,10,18-pentaen-13-ylidene)aminooxy)acetic acid], for which the dissociation constant Kd was greater than 25 µM.

On to `CO[C@H]1C=CC=C(C)C(=O)Nc2cc(O)c(N=CCN(C)C)c(c2O)C[C@@H](C)C[C@H](OC)[C@H](NCCC(F)(F)F)[C@@H](C)/C=C(\C)[C@@H]1OC(N)=O` [(8S,9S,12S,13R,14S,16R)-19-(2-(dimethylamino)ethylamino)-8,14-dimethoxy-4,10,12,16-tetramethyl-3,20,22-trioxo-13-(3,3,3-trifluoropropylamino)-2-azabicyclo[16.3.1]docosa-1(21),4,6,10,18-pentaen-9-yl carbamate], for which the dissociation constant (Kd) is greater than 10 µM.

With `CO[C@H]1[C@@H](OC)C[C@H](C)Cc2c(O)c(cc(O)c2N=CCN2CCCC2)NC(=O)C(C)=CC=C[C@H](OC)[C@@H](OC(N)=O)/C(C)=C/[C@@H]1C` [(8S,9S,12S,13R,14S,16R)-8,13,14-trimethoxy-4,10,12,16-tetramethyl-3,20,22-trioxo-19-(2-(pyrrolidin-1-yl)ethylamino)-2-azabicyclo[16.3.1]docosa-1(21),4,6,10,18-pentaen-9-yl carbamate], the Kd stood at 1 µM.

Turning to `CO[C@H]1C=CC=C(C)C(=O)Nc2cc(O)c(N=CCF)c(c2O)C[C@@H](C)C[C@H](OC)[C@H](OC(=O)CN)[C@@H](C)/C=C(\C)[C@@H]1OC(N)=O` [(8S,9S,12S,13R,14S,16R)-9-(carbamoyloxy)-19-(2-fluoroethylamino)-8,14-dimethoxy-4,10,12,16-tetramethyl-3,20,22-trioxo-2-azabicyclo[16.3.1]docosa-1(21),4,6,10,18-pentaen-13-yl 2-aminoacetate], the Kd is greater than 25 µM.

As for `CO[C@H]1C=CC=C(C)C(=O)Nc2cc(O)c(N=CCN(C)C)c(c2O)C[C@@H](C)C[C@H](OC)[C@H](N)[C@@H](C)/C=C(\C)[C@@H]1OC(N)=O`, the Kd was greater than 25 µM.

Turning to `CO[C@H]1C=CC=C(C)C(=O)Nc2cc(O)c(N=CCN(C)C)c(c2O)C[C@@H](C)C[C@H](OC)[C@H](NCC(F)F)[C@@H](C)/C=C(\C)[C@@H]1OC(N)=O` [(8S,9S,12S,13R,14S,16R)-13-(2,2-difluoroethylamino)-19-(2-(dimethylamino)ethylamino)-8,14-dimethoxy-4,10,12,16-tetramethyl-3,20,22-trioxo-2-azabicyclo[16.3.1]docosa-1(21),4,6,10,18-pentaen-9-yl carbamate], the Kd turned out to be 2.9 µM.

In the case of `C=CCO[C@H]1[C@@H](OC)CC(C)=Cc2c(O)c(cc(O)c2N2CCC2)NC(=O)C(C)=CC=C[C@H](OC)[C@@H](OC(N)=O)/C(C)=C/[C@@H]1C` [11-O-Allyl-17-(1-azetidinyl)-17-demethoxygeldanamycin], the equilibrium dissociation constant (Kd) was 2.9 µM.

For `C=CC=Nc1c(O)cc2c(O)c1C[C@@H](C)C[C@H](OC)[C@H](OC(=O)CN)[C@@H](C)/C=C(\C)[C@H](OC(N)=O)[C@@H](OC)C=CC=C(C)C(=O)N2` [(8S,9S,12S,13R,14S,16R)-19-(allylamino)-9-(carbamoyloxy)-8,14-dimethoxy-4,10,12,16-tetramethyl-3,20,22-trioxo-2-azabicyclo[16.3.1]docosa-1(21),4,6,10,18-pentaen-13-yl 2-aminoacetate], the Kd is greater than 25 µM.

In the case of `CO[C@H]1C[C@H](C)Cc2c(O)c(cc(O)c2N=CCN(C)C)NC(=O)C(C)=CC=C[C@H](OC)[C@@H](OC(N)=O)/C(C)=C/[C@H](C)/C1=N\OCCN(C)C` [(8S,9S,12S,14S,16R)-13-(2-(dimethylamino)ethoxyimino)-19-(2-(dimethylamino)ethylamino)-8,14-dimethoxy-4,10,12,16-tetramethyl-3,20,22-trioxo-2-azabicyclo[16.3.1]docosa-1(21),4,6,10,18-pentaen-9-yl carbamate], the Kd was greater than 100 µM.

With `CO[C@H]1C[C@H](C)Cc2c(O)c(cc(O)c2N=CCN(C)C)NC(=O)C(C)=CC=C[C@H](OC)[C@@H](OC(N)=O)C(C)=C[C@H](C)C1N=O` (stereo partly drawn) [(8S,9S,12S,14S,16R)-19-(2-(dimethylamino)ethylamino)-13-(hydroxyimino)-8,14-dimethoxy-4,10,12,16-tetramethyl-3,20,22-trioxo-2-azabicyclo[16.3.1]docosa-1(21),4,6,10,18-pentaen-9-yl carbamate], the dissociation constant Kd was greater than 10 µM.

As to `CO[C@H]1[C@@H](OC)C[C@H](C)Cc2c(O)c(cc(O)c2N=CCN(C)C)NC(=O)C(C)=CC=C[C@H](OC)[C@@H](OC(N)=O)/C(C)=C/[C@@H]1C` [11-O-Methyl-17-[2-(dimethylamino)ethyl]amino-17-demethoxygeldanamycin], the Kd stood at 0.8 µM.

For the molecule `C=CC=Nc1c(O)cc2c(O)c1C[C@@H](C)C[C@H](OC)[C@H](OC(=O)CCN)[C@@H](C)/C=C(\C)[C@H](OC(N)=O)[C@@H](OC)C=CC=C(C)C(=O)N2` [(8S,9S,12S,13R,14S,16R)-19-(allylamino)-9-(carbamoyloxy)-8,14-dimethoxy-4,10,12,16-tetramethyl-3,20,22-trioxo-2-azabicyclo[16.3.1]docosa-1(21),4,6,10,18-pentaen-13-yl 3-aminopropanoate], the equilibrium dissociation constant (Kd) is greater than 25 µM.

Regarding `CO[C@H]1C=CC=C(C)C(=O)Nc2cc(O)c(N=CCF)c(c2O)C[C@@H](C)C[C@H](OC)[C@H](O)[C@@H](C)/C=C(\C)[C@@H]1OC(N)=O` [Carbamic acid (4E,6Z,10E)-(8S,9S,12S,13R,14S,16R)-19-(2-fluoro-ethylamino)-13-hydroxy-8,14-dimethoxy-4,10,12,16-tetramethyl-3,20,22-trioxo-2-aza-bicyclo[16.3.1]docosa-1(21),4,6,10,18-pentaen-9-yl ester], the Kd was 0.8 µM.
